1 sequence from publication PMC9530963, “A cathelicidin antimicrobial peptide from Hydrophis cyanocinctus inhibits Zika virus infection by downregulating expression of a viral entry factor” (The Journal of Biological Chemistry, 2022) can be followed below.

One assay relates to ZIKV. The experiment in a line: Direct inactivation of ZIKV particles (virus pre-incubated with peptide). The class given is cell-based, ZIKV strain PRVABC59. The note with it: ZIKV incubated with 2.5 μM peptide at 37 °C for 2 h, pelleted, added to Vero cells, 48 h; RNA, NS3, E protein, titer. The method, then:
Figure 8 Hc-CATH directly inactivates ZIKV particles by disrupting viral membrane.A, schematic diagram of B–G (Hc-CATH-Vero-pre). B–G, direct inactivation of ZIKV by Hc-CATH. ZIKVs (MOI = 1) were incubated with Hc-CATH (2.5 μM), AC5 (2.5 μM), LL-37 (2.5 μM), or PBS (peptide solvent) at 37 °C for 2 h, and then the ZIKV–PBS mixture and ZIKV–peptide mixture were centrifugated at 100,000g for 70 min. The pellets were washed with PBS and centrifugated at 100,000g for 70 min again. The pellets were resuspended in PBS, added to Vero cells, and incubated for 2 h. Cells were washed with PBS and cultured in fresh DMEM containing 2% FBS. After culture at 37 °C for 48 h, the intracellular ZIKV RNA (B), NS3 protein (C and D), E protein level (E, the scale bar represents 50 μm), and extracellular ZIKV titer (F and G) were tested by qPCR, Western blot, immunofluorescence staining, and plaque-forming assay, respectively. H, binding of Hc-CATH to ZIKV. High-affinity binding plates were coated with 0.25 μM of Hc-CATH, BSA, AC5, or LL-37. Then, 1 × 10^6 PFU of ZIKV was added and incubated. […] Absorbance at 450 nm was measured after reactions were stopped using 0.5 M sulfuric acid. […] After the residual RNase was inactivated, the undigested genomic RNA in the intact ZIKV particles was extracted and quantified by testing the genes of PrM, E, and Cap proteins, respectively. ∗∗p < 0.01 and ∗∗∗p < 0.001. […]

The next assay deals with PGE2. The assay is described as follows: PGE2 production in A549 cells (ELISA). The class given is cell-based, Homo sapiens. As to conditions: 24 h, cell supernatant. The method, then: Figure 6 Hc-CATH downregulates AXL via inhibiting COX-2/PGE2/AC/PKA pathway.A, effect of Hc-CATH on COX-2 protein level. A549 cells were incubated with Hc-CATH (1.25, 2.5, or 5 μM) or PBS (solvent of Hc-CATH) at 37 °C for 24 h, COX-2 protein level was examined by Western blot (upper panel) and analyzed by ImageJ (lower panel). B, effect of Hc-CATH on the enzymatic activity of COX-2. Hc-CATH (1.25, 2.5, 5, and 10 μM) or PBS was incubated with COX-2. After incubation at 37 °C for 10 min, the enzymatic activity of COX-2 was detected by enzyme activity inhibitor screening kit. Celecoxib (COX-2 inhibitor, 100 nM) was used as positive control. C, effect of Hc-CATH on PGE2 production. A549 cells were incubated with Hc-CATH (5 μM) at 37 °C. After incubation for 24 h, the level of PGE2 in the cell supernatant was detected by ELISA. D and E, effect of AC (D) and PKA (E) on Hc-CATH-induced AXL downregulation. A549 cells were incubated with forskolin (FSK, agonist of AC, 10 μM) or H89 (inhibitor of PKA, 5 μM) at 37 °C. After incubation for 1 h, the culture media were removed, cells were washed three times with PBS, and fresh culture media were added to cells in the presence of Hc-CATH (5 μM). After incubation for 24 h, AXL protein level was examined by Western blot (upper panel of D and E) and analyzed by ImageJ (lower panel of D and E). ns, not significant, ∗∗p < 0.01, and ∗∗∗p < 0.001. […]

For the sequence “KFFKRLLKSVRRAVKKFRKKPRLIGLSTLL [Hc-CATH, cathelicidin antimicrobial peptide identified from the sea snake Hydrophis cyanocinctus]”, the “direct inactivation of ZIKV particles” value with ZIKV is “directly inactivated viral particles”. Besides, the “synthesis of PGE2” value with PGE2 is listed as “significantly reduced the synthesis of PGE2”.
